Laboratory results reported in article PMC4564171 (PLoS ONE, 2015).
“And” between values parts separate entries of the source, which are not always exact repeats. Equal entries are not always repeated. Where two headings read alike, the source gives them in different places.

Assays:
[1] = system: E. coli RNA polymerase (RNAP) binding to the lac promoter (plac); test: Control EMSA of E. coli RNA polymerase binding to the lac promoter; conditions: compound 100 μM; RNAP 2.7 μM; 5'Cy5-plac probe 0.25 μM
Method: [picture] Figure C: EMSA depicting E. coli RNA Polymerase (RNAP) Binding to the lac Promoter (plac) in the Presence of 19615. […] For the EMSA a hybrid 2% acrylamide, 1% agarose gel was used which was made with and ran in a 1X TGE buffer (25 mM Tris base, 190 mM glycine, 1 mM EDTA, pH 8.3). The sequence of the 5’Cy5-plac DNA probe is as follows: 5’-gtgccctggtctgg[…]-3’ (lowercase text represents LUEGO sequence, uppercase text represents lac promoter sequence).

[2] = system: 60 bp pvirB FID DNA probe; test: Fluorescence intercalator displacement (FID) assay, 60 bp probe; type: binding, Shigella flexneri; conditions: for 60 bp pvirB FID probe %fluorescence: ethidium bromide 45 μM, probe 1.5 μM
Method: (§1) The FID protocol was based on previously published studies and was conducted in triplicate. For the assay, black, half-area, 96-well plates (Corning, Twerksbury, MA) were used. First, 70 μL of ethidium bromide in Tris Buffer (0.1 M Tris HCl, 0.1 M NaCl, pH 8.0) was added to all wells. The concentration of ethidium bromide was contingent upon the length of the DNA probe that was used. For the 60 bp pvirB FID DNA probe, the final ethidium bromide concentration used was 45 μM; whereas, for the 10 bp pvirB (51–60) FID DNA probe, the final ethidium bromide concentration used was 7.5 μM. Next, 10 μL of either pvirB FID DNA probes (10 or 60 bp) in TE/NaCl buffer (see above) or 10 μL of TE/NaCl buffer (background fluorescence control) were added to the appropriate wells of the plate. The final concentrations of the pvirB FID DNA probes were 1.5 μM. Lastly, 20 μL of test compound (either 19615 or Berenil) in 10% DMSO Tris Buffer or 20 μL of 10% DMSO Tris Buffer (100% fluorescence control) were added to the appropriate wells of the plate. The final concentrations of each test compound ranged from 12.5 μM to 100 μM. After the addition of all reagents, the plates were protected from light and allowed to equilibrate for 30 min on an orbital shaker at room temperature. Following equilibration, fluorescence was measured […] using a Biotek Synergy H1 plate reader (Winooski, VT). The average background fluorescence was subtracted from all data generated and %fluorescence was calculated for all wells containing compound via the following formula: %fluorescence=Ftest/F100%^*100 where: Ftest = the average fluorescence value obtained for each test compound and F100% = the average fluorescence value obtained for each 100% fluorescence control.

[3] = system: 10 bp pvirB FID DNA probes; test: Fluorescence intercalator displacement (FID) assay, 10 bp probes; type: binding, Shigella flexneri; conditions: for 10 bp pvirB 51–60 FID probe %fluorescence: ethidium bromide 7.5 μM, probe 1.5 μM
Method: as §1, with “The final concentrations of each test compound ranged from 12.5 μM to 100 μM.” left out

[4] = system: VirF-driven transcriptional activation; design: method as in PMID 24549153; conditions: VirF-driven β-galactosidase reporter; read-out: Shigella-Based Reporter Assay IC50; cited from earlier work
[5] = system: spread of an active S. flexneri infection; conditions: cited from earlier work
mammalian cells = system: mammalian cells; design: method as in PMID 24549153; conditions: at the tested concentrations; cited from earlier work
S. flexneri = system: S. flexneri; design: method as in PMID 24549153; conditions: at the tested concentrations; cited from earlier work

Sequence of E. coli RNA polymerase (RNAP) binding to the lac promoter (plac) (P0A7Z4 whole entry): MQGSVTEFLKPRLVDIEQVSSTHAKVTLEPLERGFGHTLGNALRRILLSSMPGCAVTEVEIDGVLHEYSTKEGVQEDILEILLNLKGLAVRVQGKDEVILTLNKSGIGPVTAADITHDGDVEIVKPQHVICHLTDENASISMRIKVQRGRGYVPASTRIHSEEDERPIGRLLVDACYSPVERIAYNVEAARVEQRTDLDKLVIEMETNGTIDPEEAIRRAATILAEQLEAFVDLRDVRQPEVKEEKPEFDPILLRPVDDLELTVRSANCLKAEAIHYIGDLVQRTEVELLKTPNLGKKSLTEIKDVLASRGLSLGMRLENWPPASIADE
Sequence of E. coli RNA polymerase (RNAP) binding to the lac promoter (plac) (P0A800 whole entry, further chain): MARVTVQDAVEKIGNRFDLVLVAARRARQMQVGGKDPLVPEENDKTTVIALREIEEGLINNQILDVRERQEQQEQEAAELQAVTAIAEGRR
Sequence of E. coli RNA polymerase (RNAP) binding to the lac promoter (plac) (P0A8T7 whole entry, further chain): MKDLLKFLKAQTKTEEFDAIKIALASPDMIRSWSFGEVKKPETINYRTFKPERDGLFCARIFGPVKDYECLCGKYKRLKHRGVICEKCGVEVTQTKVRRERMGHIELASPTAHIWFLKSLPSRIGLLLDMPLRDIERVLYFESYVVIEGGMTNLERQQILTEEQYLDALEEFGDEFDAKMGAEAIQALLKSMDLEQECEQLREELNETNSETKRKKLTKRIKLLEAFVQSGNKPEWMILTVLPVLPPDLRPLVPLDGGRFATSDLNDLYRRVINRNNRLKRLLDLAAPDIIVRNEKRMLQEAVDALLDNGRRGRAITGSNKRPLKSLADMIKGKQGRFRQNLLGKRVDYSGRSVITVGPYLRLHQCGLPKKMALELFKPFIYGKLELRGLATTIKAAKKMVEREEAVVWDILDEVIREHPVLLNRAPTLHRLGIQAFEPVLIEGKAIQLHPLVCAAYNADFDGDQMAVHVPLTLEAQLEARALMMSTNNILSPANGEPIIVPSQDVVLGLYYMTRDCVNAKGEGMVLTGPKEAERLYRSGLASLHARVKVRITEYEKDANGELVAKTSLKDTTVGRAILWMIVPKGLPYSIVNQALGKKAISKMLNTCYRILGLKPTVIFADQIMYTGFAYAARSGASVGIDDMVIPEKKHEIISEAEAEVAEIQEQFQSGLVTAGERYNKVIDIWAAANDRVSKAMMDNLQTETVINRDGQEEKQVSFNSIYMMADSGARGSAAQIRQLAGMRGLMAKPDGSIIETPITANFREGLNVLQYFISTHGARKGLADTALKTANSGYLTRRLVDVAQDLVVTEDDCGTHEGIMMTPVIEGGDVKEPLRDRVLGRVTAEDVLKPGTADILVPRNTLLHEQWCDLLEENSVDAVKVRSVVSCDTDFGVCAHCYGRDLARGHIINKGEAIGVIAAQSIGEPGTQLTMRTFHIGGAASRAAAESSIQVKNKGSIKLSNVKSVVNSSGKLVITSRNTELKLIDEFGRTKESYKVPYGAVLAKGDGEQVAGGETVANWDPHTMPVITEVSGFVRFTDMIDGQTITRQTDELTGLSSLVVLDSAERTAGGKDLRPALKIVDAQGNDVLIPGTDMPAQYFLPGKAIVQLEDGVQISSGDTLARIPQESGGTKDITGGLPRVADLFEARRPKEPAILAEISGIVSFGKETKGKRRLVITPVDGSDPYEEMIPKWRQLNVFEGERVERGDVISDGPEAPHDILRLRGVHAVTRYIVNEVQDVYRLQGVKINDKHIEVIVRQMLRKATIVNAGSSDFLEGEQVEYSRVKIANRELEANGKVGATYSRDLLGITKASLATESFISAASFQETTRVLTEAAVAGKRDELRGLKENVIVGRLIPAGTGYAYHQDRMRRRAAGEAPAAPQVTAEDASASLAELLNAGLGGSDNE
Sequence of E. coli RNA polymerase (RNAP) binding to the lac promoter (plac) (P00579 whole entry, further chain): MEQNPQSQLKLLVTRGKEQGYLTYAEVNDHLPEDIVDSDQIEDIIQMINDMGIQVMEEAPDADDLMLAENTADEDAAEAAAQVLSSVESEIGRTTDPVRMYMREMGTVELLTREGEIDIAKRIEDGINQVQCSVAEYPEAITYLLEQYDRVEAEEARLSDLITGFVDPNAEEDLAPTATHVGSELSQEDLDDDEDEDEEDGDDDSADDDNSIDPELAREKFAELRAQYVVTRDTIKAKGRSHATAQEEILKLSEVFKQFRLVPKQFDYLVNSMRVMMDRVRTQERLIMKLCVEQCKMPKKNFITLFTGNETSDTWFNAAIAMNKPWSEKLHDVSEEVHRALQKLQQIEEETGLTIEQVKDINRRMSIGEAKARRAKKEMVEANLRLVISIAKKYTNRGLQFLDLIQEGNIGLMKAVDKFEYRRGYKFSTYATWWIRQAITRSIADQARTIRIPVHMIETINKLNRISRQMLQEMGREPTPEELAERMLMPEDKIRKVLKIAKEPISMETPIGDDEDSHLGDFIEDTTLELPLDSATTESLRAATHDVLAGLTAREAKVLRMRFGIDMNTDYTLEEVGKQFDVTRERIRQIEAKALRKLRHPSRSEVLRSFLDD
Sequence of E. coli RNA polymerase (RNAP) binding to the lac promoter (plac) (P0A8V2 whole entry, further chain): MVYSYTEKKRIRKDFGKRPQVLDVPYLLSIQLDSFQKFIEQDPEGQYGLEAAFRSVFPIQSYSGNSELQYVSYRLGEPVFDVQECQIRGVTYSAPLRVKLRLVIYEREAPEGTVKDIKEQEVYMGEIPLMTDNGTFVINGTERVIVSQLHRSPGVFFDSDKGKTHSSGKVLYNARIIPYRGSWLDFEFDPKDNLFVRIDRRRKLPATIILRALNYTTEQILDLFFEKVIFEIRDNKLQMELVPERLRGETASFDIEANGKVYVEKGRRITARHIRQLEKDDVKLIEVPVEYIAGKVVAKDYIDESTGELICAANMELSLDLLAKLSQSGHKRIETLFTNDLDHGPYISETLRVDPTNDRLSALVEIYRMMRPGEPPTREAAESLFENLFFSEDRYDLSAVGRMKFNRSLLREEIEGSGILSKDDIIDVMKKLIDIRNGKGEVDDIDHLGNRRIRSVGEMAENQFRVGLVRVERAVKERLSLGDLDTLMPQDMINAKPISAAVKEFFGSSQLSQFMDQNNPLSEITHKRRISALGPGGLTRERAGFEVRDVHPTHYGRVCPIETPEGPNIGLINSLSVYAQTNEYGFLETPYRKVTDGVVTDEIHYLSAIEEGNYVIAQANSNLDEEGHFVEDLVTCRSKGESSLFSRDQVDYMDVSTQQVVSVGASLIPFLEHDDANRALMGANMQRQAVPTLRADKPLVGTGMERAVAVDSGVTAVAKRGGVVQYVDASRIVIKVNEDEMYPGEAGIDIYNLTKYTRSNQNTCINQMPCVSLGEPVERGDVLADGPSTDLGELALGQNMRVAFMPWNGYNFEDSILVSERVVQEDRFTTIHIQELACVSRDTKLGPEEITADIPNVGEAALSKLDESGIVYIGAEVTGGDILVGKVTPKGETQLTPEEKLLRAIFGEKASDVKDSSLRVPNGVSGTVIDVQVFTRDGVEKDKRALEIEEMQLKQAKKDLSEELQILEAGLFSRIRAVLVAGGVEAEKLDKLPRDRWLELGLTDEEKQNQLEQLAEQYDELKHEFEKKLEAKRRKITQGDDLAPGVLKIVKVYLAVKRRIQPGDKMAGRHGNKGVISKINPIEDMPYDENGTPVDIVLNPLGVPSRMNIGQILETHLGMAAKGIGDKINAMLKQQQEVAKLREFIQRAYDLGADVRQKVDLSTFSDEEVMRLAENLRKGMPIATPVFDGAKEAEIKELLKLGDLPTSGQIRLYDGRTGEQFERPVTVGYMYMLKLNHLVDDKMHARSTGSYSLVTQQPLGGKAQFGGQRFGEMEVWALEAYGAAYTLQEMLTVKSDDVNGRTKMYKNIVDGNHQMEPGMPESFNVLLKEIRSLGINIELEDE

CN(C)CCOc1nc(-c2ccccc2)nc2c1oc1ccccc12 [compound 19615]
Effect on RNAP binding to the lac promoter (EMSA) [1]: no effect on RNAP binding
Displacement of ethidium bromide from the pvirB DNA probes (FID) ([2]; 12.5 to 100 μM, both 60 bp and 10 bp probes): not able to displace ethidium bromide
60 bp pvirB FID probe %fluorescence ([2]; compound 12.5 μM): 93% ± 3%
60 bp pvirB FID probe %fluorescence ([2]; compound 25 μM): 97% ± 2%
60 bp pvirB FID probe %fluorescence ([2]; compound 50 μM): 95% ± 2%
60 bp pvirB FID probe %fluorescence ([2]; compound 100 μM): 93% ± 3%
%fluorescence, 10 bp fragment pvirB 21-30 ([3]; compound 2 μM, preliminary FID screen, 5'-AATAAAGATA-3'): 92% ± 1%
%fluorescence, 10 bp fragment pvirB 31-40 ([3]; compound 2 μM, preliminary FID screen, 5'-AATTGCATCA-3'): 94% ± 2%
%fluorescence, 10 bp fragment pvirB 1-10 ([3]; compound 2 μM, preliminary FID screen, 5'-AGAATATTAT-3'): 93% ± 6%
%fluorescence, 10 bp fragment pvirB 41-50 ([3]; compound 2 μM, preliminary FID screen, 5'-ATCCAGCTAT-3'): 94% ± 1%
%fluorescence, 10 bp fragment pvirB 51-60 ([3]; compound 2 μM, preliminary FID screen, 5'-TAAAATAGTA-3'): 92% and 92% ± 0%
%fluorescence, 10 bp fragment pvirB 11-20 ([3]; compound 2 μM, preliminary FID screen, 5'-TCTTTTATCC-3'): 95% ± 3%
10 bp pvirB 51–60 FID probe %fluorescence ([3]; compound 12.5 μM): 97% ± 2%
10 bp pvirB 51–60 FID probe %fluorescence ([3]; compound 25 μM): 97% ± 3%
10 bp pvirB 51–60 FID probe %fluorescence ([3]; compound 50 μM): 97% ± 2%
10 bp pvirB 51–60 FID probe %fluorescence ([3]; compound 100 μM): 95% ± 1%
IC50 [4]: 14 µM
Inhibition of the spread of an active S. flexneri infection ([5]; at 6.25 μM): 75%
Inhibition of the spread of an active S. flexneri infection ([5]; at concentrations at or below their IC50s in the reporter assay): approximately 75%
Plaque Efficiency Assay IC75 ([5]; ref Emanuele et al. J. Antibiotics 67:379–386 (2014)): 6.25 µM
Toxicity to mammalian cells (mammalian cells): not toxic
Toxicity to S. flexneri (S. flexneri): not toxic
